Assay results from patent US11077090B2, “Compounds and compositions and uses thereof” (Sunovion Pharmaceuticals Inc., priority 2016, dated 2021).

system: compound-treated mice; test: Neuropharmacological assay (SmartCube): behavioral activity signature and minimal effective dose; format: in vivo; conditions: Mus musculus, ip, MED = dose having 50% or more total activity, read-out: Potency: minimal effective dose (MED), binned
Procedure, shortened: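 Mice dosed i.p. 15 min before test, compound in N-methyl-2-pyrrolidone/PEG/propylene glycol, 3 doses; video-captured behavior matched to reference-drug signatures, giving per-class probabilities at most efficacious dose. MED from doses typically 0.3–30 mpk, defined as lowest dose with ≥50% total activity.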

Row | SMILES | minimal effective dose [mg/kg]
1 | CCCN[C@H]1COCc2ccccc21.Cl [Example 265] | 3 to 10
2 | C#CCN[C@H]1COCc2ccccc21.Cl [Example 266] | 3 to 10
3 | C#CCN[C@@H]1c2ccccc2CO[C@H]1C.Cl [Example 267] | < 3
4 | CCCN[C@H]1c2ccccc2CO[C@@H]1C.Cl [Example 268] | 3 to 10
5 | CCCN[C@@H]1c2ccccc2CO[C@@H]1C.Cl [Example 269] | 3 to 10
6 | C#CCN[C@H]1c2ccccc2CO[C@@H]1C.Cl [Example 270] | < 3
7 | C#CCN[C@H]1c2ccccc2CO[C@H]1C.Cl [Example 271] | 3 to 10
8 | CCCN[C@H]1c2ccccc2CO[C@H]1C.Cl [Example 272] | 3 to 10
9 | CCN(C)C(=O)Oc1ccc2c(c1)C(N)COC2.Cl (stereo not drawn) [Example 277, 4-Aminoisochroman-6-yl ethyl(methyl)carbamate hydrochloride] | > 30
10 | CCN(C)C(=O)Oc1ccc2c(c1)CO[C@@H](C)[C@H]2N.Cl [Example 279] | 3 to 10
11 | CCN(C)C(=O)Oc1ccc2c(c1)CO[C@H](C)[C@H]2N.Cl [Example 280] | 3 to 10
12 | CCN(C)C(=O)Oc1ccc2c(c1)[C@H](N)[C@H](C)OC2.Cl [Example 281] | > 30
13 | CCN(C)C(=O)Oc1ccc2c(c1)[C@H](N)[C@@H](C)OC2.Cl [Example 282] | > 30
14 | CCN(C)C(=O)Oc1ccc2c(c1)COCC2N(C)C.Cl (stereo not drawn) [Example 283] | 3 to 10
15 | CCN(C)C(=O)Oc1ccc2c(c1)C(N(C)C)COC2.Cl (stereo not drawn) [Example 284] | 10 to 30

same assay, conditions: i.p. 15 min before test, most efficacious dose(s)

Row | SMILES | AD: ADHD (probability of activity signature) | AG: analgesic (probability of activity signature) | AX: anxiolytic (probability of activity signature) | CE: cognitive enhancer (probability of activity signature) | DP: anti-depressant (probability of activity signature) | MS: mood stabilizer (probability of activity signature) | PS: anti-psychotic (probability of activity signature) | SD: sedative hypnotic (probability of activity signature) | UN: uncharacterized CNS activity (probability of activity signature)
16 | CCCN[C@H]1COCc2ccccc21.Cl [Example 265] | + (LOQ ≤ + <5%) | + (LOQ ≤ + <5%) | + (LOQ ≤ + <5%) | + (LOQ ≤ + <5%) | ++ (5% ≤ ++ <25%) | + (LOQ ≤ + <5%) | + (LOQ ≤ + <5%) | ++ (5% ≤ ++ <25%) | + (LOQ ≤ + <5%)
17 | C#CCN[C@H]1COCc2ccccc21.Cl [Example 266] | + (LOQ ≤ + <5%) | + (LOQ ≤ + <5%) | + (LOQ ≤ + <5%) | + (LOQ ≤ + <5%) | + (LOQ ≤ + <5%) | ++ (5% ≤ ++ <25%) | + (LOQ ≤ + <5%) | ++ (5% ≤ ++ <25%) | + (LOQ ≤ + <5%)
18 | C#CCN[C@@H]1c2ccccc2CO[C@H]1C.Cl [Example 267] | + (LOQ ≤ + <5%) | + (LOQ ≤ + <5%) | + (LOQ ≤ + <5%) | + (LOQ ≤ + <5%) | ++ (5% ≤ ++ <25%) | ++ (5% ≤ ++ <25%) | + (LOQ ≤ + <5%) | ++ (5% ≤ ++ <25%) | ++ (5% ≤ ++ <25%)
19 | CCCN[C@H]1c2ccccc2CO[C@@H]1C.Cl [Example 268] | ++ (5% ≤ ++ <25%) | + (LOQ ≤ + <5%) | ++ (5% ≤ ++ <25%) | + (LOQ ≤ + <5%) | + (LOQ ≤ + <5%) | ++ (5% ≤ ++ <25%) | +++ (25% ≤ +++ <50%) | ++ (5% ≤ ++ <25%) | ++ (5% ≤ ++ <25%)
20 | CCCN[C@@H]1c2ccccc2CO[C@@H]1C.Cl [Example 269] | + (LOQ ≤ + <5%) | + (LOQ ≤ + <5%) | + (LOQ ≤ + <5%) | + (LOQ ≤ + <5%) | ++ (5% ≤ ++ <25%) | ++ (5% ≤ ++ <25%) | + (LOQ ≤ + <5%) | ++ (5% ≤ ++ <25%) | ++ (5% ≤ ++ <25%)
21 | C#CCN[C@H]1c2ccccc2CO[C@@H]1C.Cl [Example 270] | ++ (5% ≤ ++ <25%) | + (LOQ ≤ + <5%) | ++ (5% ≤ ++ <25%) | + (LOQ ≤ + <5%) | ++ (5% ≤ ++ <25%) | ++++ (50% ≤ ++++) | + (LOQ ≤ + <5%) | ++ (5% ≤ ++ <25%) | ++ (5% ≤ ++ <25%)
22 | C#CCN[C@H]1c2ccccc2CO[C@H]1C.Cl [Example 271] | ++ (5% ≤ ++ <25%) | + (LOQ ≤ + <5%) | ++ (5% ≤ ++ <25%) | + (LOQ ≤ + <5%) | ++ (5% ≤ ++ <25%) | +++ (25% ≤ +++ <50%) | + (LOQ ≤ + <5%) | ++ (5% ≤ ++ <25%) | ++ (5% ≤ ++ <25%)
23 | CCCN[C@H]1c2ccccc2CO[C@H]1C.Cl [Example 272] | + (LOQ ≤ + <5%) | + (LOQ ≤ + <5%) | ++ (5% ≤ ++ <25%) | + (LOQ ≤ + <5%) | + (LOQ ≤ + <5%) | ++ (5% ≤ ++ <25%) | ++ (5% ≤ ++ <25%) | ++ (5% ≤ ++ <25%) | ++ (5% ≤ ++ <25%)
24 | CCN(C)C(=O)Oc1ccc2c(c1)C(N)COC2.Cl (stereo not drawn) [Example 277, 4-Aminoisochroman-6-yl ethyl(methyl)carbamate hydrochloride] | + (LOQ ≤ + <5%) | + (LOQ ≤ + <5%) | + (LOQ ≤ + <5%) | + (LOQ ≤ + <5%) | + (LOQ ≤ + <5%) | + (LOQ ≤ + <5%) | + (LOQ ≤ + <5%) | + (LOQ ≤ + <5%) | + (LOQ ≤ + <5%)
25 | CCN(C)C(=O)Oc1ccc2c(c1)CO[C@@H](C)[C@H]2N.Cl [Example 279] | + (LOQ ≤ + <5%) | + (LOQ ≤ + <5%) | + (LOQ ≤ + <5%) | + (LOQ ≤ + <5%) | ++ (5% ≤ ++ <25%) | +++ (25% ≤ +++ <50%) | ++ (5% ≤ ++ <25%) | ++ (5% ≤ ++ <25%) | ++ (5% ≤ ++ <25%)
26 | CCN(C)C(=O)Oc1ccc2c(c1)CO[C@H](C)[C@H]2N.Cl [Example 280] | + (LOQ ≤ + <5%) | + (LOQ ≤ + <5%) | + (LOQ ≤ + <5%) | ++ (5% ≤ ++ <25%) | ++ (5% ≤ ++ <25%) | ++ (5% ≤ ++ <25%) | + (LOQ ≤ + <5%) | ++ (5% ≤ ++ <25%) | + (LOQ ≤ + <5%)
27 | CCN(C)C(=O)Oc1ccc2c(c1)[C@H](N)[C@H](C)OC2.Cl [Example 281] | + (LOQ ≤ + <5%) | + (LOQ ≤ + <5%) | + (LOQ ≤ + <5%) | + (LOQ ≤ + <5%) | + (LOQ ≤ + <5%) | + (LOQ ≤ + <5%) | + (LOQ ≤ + <5%) | + (LOQ ≤ + <5%) | + (LOQ ≤ + <5%)
28 | CCN(C)C(=O)Oc1ccc2c(c1)[C@H](N)[C@@H](C)OC2.Cl [Example 282] | + (LOQ ≤ + <5%) | + (LOQ ≤ + <5%) | + (LOQ ≤ + <5%) | + (LOQ ≤ + <5%) | + (LOQ ≤ + <5%) | + (LOQ ≤ + <5%) | + (LOQ ≤ + <5%) | ++ (5% ≤ ++ <25%) | + (LOQ ≤ + <5%)
29 | CCN(C)C(=O)Oc1ccc2c(c1)COCC2N(C)C.Cl (stereo not drawn) [Example 283] | ++ (5% ≤ ++ <25%) | + (LOQ ≤ + <5%) | ++ (5% ≤ ++ <25%) | + (LOQ ≤ + <5%) | ++ (5% ≤ ++ <25%) | +++ (25% ≤ +++ <50%) | ++ (5% ≤ ++ <25%) | ++ (5% ≤ ++ <25%) | ++ (5% ≤ ++ <25%)
30 | CCN(C)C(=O)Oc1ccc2c(c1)C(N(C)C)COC2.Cl (stereo not drawn) [Example 284] | + (LOQ ≤ + <5%) | + (LOQ ≤ + <5%) | ++ (5% ≤ ++ <25%) | + (LOQ ≤ + <5%) | ++ (5% ≤ ++ <25%) | +++ (25% ≤ +++ <50%) | ++ (5% ≤ ++ <25%) | ++ (5% ≤ ++ <25%) | + (LOQ ≤ + <5%)
